Experimental findings from patent EP0024372A1, “Derivatives of clavulanic acid, their preparation and pharmaceutical compositions containing them” (BEECHAM GROUP PLC, priority 1979, dated 1981) are described below.

Each structure is given as a SMILES string.

Assay in all cases: standard MIC microtitre synergy test with ampicillin
Assay type in all cases: cell-based

Assay [1] concerns Staphylococcus aureus Russell. The following applies: one cell spanning Inhibitor Concentration 20, 5 and 1 μg/ml. From the text: (§1) In a standard MIC microtitre synergy test with ampicillin the following results were obtained with the compound of Example 7.
The subject of a further assay is Proteus mirabilis C889.
Source text: as §1

The test system of another assay is E.coli JT39.
Source text: as §1

In the next assay the test system is Klebsiella aerogenes E70.
Source text: as §1

Where [2] appears, read: Inhibitor Concentration 1 μg/ml.
[3] abbreviates: Inhibitor Concentration 5 μg/ml.
The mark [4] stands for this setting: Inhibitor Concentration 20 μg/ml.

For the compound `O=C(O)[C@H]1/C(=C/Cc2ccccc2O)O[C@@H]2CC(=O)N21` [Example 7, Lithium 9-(2-hydroxyphenyl)deoxyclavulanate], the “MIC microtitre synergy test with ampicillin” value in assay [1] is “- Inhibition -”; with Proteus mirabilis C889 (setting [2]), 16; in the assay on Proteus mirabilis C889 (setting [3]) it was 16; in the assay on Proteus mirabilis C889 (setting [4]), 8; in the assay on E.coli JT39 (setting [2]), 125; in the assay on E.coli JT39 (setting [3]), 16. In addition, the “MIC microtitre synergy test with ampicillin” value was 2 in the assay on E.coli JT39 (setting [4]), 12.5 in the assay with Klebsiella aerogenes E70 (setting [2]), 6.25 in the assay on Klebsiella aerogenes E70 (setting [3]) and 3.1 in the assay with Klebsiella aerogenes E70 (setting [4]).
